Source: PubChem BioAssay (NCI)
Values joined by “and” are separate entries in the source; they are usually repeats but may differ in a detail not shown here. Equal entries are not always repeated.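 96-well plates; 48 h exposure; 5 concentrations. Endpoints by linear interpolation between flanking doses. Not reached: highest tested concentration assigned. Abbreviation: GI50, concentration required for 50% inhibition of growth. At the TGI there is no net growth.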

Assays:
Test in all cases: DTP human tumour cell line panel, 48 h
HCT-116 colon = tested on: HCT-116 colon
NCI-H522 lung = tested on: NCI-H522 lung
NCI-H460 lung = tested on: NCI-H460 lung
COLO 205 colon = tested on: COLO 205 colon
SF-539 CNS = tested on: SF-539 CNS
IGROV1 ovarian = tested on: IGROV1 ovarian
M14 melanoma = tested on: M14 melanoma
A498 renal = tested on: A498 renal
DU-145 prostate = tested on: DU-145 prostate
OVCAR-4 ovarian = tested on: OVCAR-4 ovarian

| SMILES | GI50 (HCT-116 colon) | TGI (HCT-116 colon) | GI50 (NCI-H522 lung) | TGI (NCI-H522 lung) | GI50 (NCI-H460 lung) | TGI (NCI-H460 lung) | GI50 (COLO 205 colon) | TGI (COLO 205 colon) | GI50 (SF-539 CNS) | TGI (SF-539 CNS) | GI50 (IGROV1 ovarian) | TGI (IGROV1 ovarian) | GI50 (M14 melanoma) | TGI (M14 melanoma) | GI50 (A498 renal) | TGI (A498 renal) | GI50 (DU-145 prostate) | TGI (DU-145 prostate) | GI50 (OVCAR-4 ovarian) | TGI (OVCAR-4 ovarian) |
| --- | --- | --- | --- | --- | --- | --- | --- | --- | --- | --- | --- | --- | --- | --- | --- | --- | --- | --- | --- | --- |
| CC1=C(CCCOC(=O)[C@H](N)CC(C)C)C2=C(C)C3(CC3)[C@@](C)(O)C(=O)C2=C1 | 1.7 µM | 5.91 µM | 2.69 µM | 11.1 µM | 0.375 µM | 11.1 µM | 1.49 µM | 3.42 µM | 1.61 µM | 4.25 µM | 0.471 µM | 6.19 µM | 1.67 µM | 4.41 µM | 1.68 µM | 3.66 µM | 0.392 µM | > 100 µM | 1.54 µM | 21.6 µM |
| COc1cc2c(c3oc(-c4ccc(O)cc4)c(O)c(=O)c13)CCC(C)(C)O2 | 0.172 µM | 0.372 µM | 0.0776 µM | 0.232 µM | 0.0996 µM | 0.351 µM | 2.18 µM | 5.02 µM | 0.0241 µM | 0.0586 µM | 0.158 µM | 0.526 µM | 0.212 µM | 0.523 µM | 0.148 µM | 0.538 µM | 0.295 µM | > 44.9 µM | 0.9 µM | 2.88 µM |
| CS(=O)(=O)OCCN(CCOS(C)(=O)=O)c1ccc(C=Nc2ccc(-c3csc(COc4ccccc4)n3)cc2)cc1 |  | 27.6 µM |  | 0.868 µM |  | 2.1 µM |  | 6.98 µM |  | 14.7 µM |  | 32.8 µM |  | 28.1 µM |  | 7.48 µM |  | 14.2 µM |  | 49.1 µM |
| O=S(=O)(NCCCNc1cc(-c2cn(-c3ccccc3)nc2-c2cccc(O)c2)ccn1)c1ccc(C(F)(F)F)cc1 | 1.44 µM | 2.95 µM | 2.28 µM | 4.83 µM | 1.86 µM | 3.86 µM | 1.78 µM | 3.54 µM | 1.83 µM | 3.77 µM | 3.24 µM | 9.55 µM | 1.66 µM | 3.24 µM | 1.1 µM | 2.64 µM | 2.65 µM | 8.11 µM | 1.87 µM | 5.78 µM |
| Cc1ccc(NC(=O)c2ccc(CN3CCN(C)CC3)cc2)cc1Nc1nc(-c2cccnc2)cs1 | 3.74 µM and 3.05 µM | 14.8 µM and > 10 µM | 10.5 µM and 3.55 µM | 23.4 µM and > 10 µM | 7.33 µM and 5.34 µM | 22.5 µM and > 10 µM | 8.14 µM and 3.69 µM | 22.6 µM and > 10 µM | 1.7 µM and 1.13 µM | 6.81 µM and 2.48 µM | 15 µM and 7.66 µM | 35.6 µM and > 10 µM | 7.66 µM and 3.44 µM | 21.2 µM and > 10 µM | 16 µM and > 10 µM | 29.6 µM and > 10 µM | 15 µM and > 10 µM | 28.4 µM and > 10 µM | 11.6 µM and 7.8 µM | 26.5 µM and > 10 µM |
| O=C(O)/C=C/c1ccc(O)c(O)c1 |  | > 100 µM |  | > 100 µM |  | > 100 µM |  | > 100 µM |  | > 100 µM |  | > 100 µM |  | > 100 µM |  | > 100 µM |  | > 100 µM |  | > 100 µM |
| Sc1cccc2cccnc12 | 0.411 µM | 7.8 µM | 2.13 µM | 5.66 µM | 0.389 µM | 6.23 µM | 2.32 µM | 9.38 µM | 0.776 µM | 12.9 µM | 0.541 µM | 12.6 µM | 0.457 µM | 6.09 µM | 2.45 µM | 8.8 µM | 0.626 µM | 15.9 µM | 0.445 µM | 12.7 µM |
| O=C(CCCc1ccc(N(CCCl)CCCl)cc1)NCc1ccccc1 | 4.57 µM | 20.7 µM | 6.42 µM | 24.5 µM | 2.81 µM | 59.4 µM | 13.5 µM | 33 µM | 17.8 µM | 73.8 µM | 13.8 µM | 43.9 µM | 4.18 µM | 24.2 µM | 2.59 µM | 20.8 µM | 5.04 µM | 56.6 µM | 12.5 µM | 35.1 µM |
